Our source for the IC50 values is US20240294551A1 (AMGEN INC., priority 2022, published 2024).

Read-outs that look alike come from different tables or passages of the source.

One experiment concerns AsPC-1 cells. Description: AsPC-1 CTG Assay (CellTiter-Glo cell viability). The experiment is classed as cell-based, human. The conditions noted are these: Homo sapiens, ASPC1, 72 h, AsPC-1, 72 h; first value of the cell; read-out: G12D/C/V Cell Proliferation CTG (72 h) AsPC-1. How it is done:
AsPC-1 and SW620 CTG Assay Protocols
AsPC-1 (human pancreatic adenocarcinoma; ATCC CRL-1682) or SW620 (human colon adenocarcinoma; ATCC CCL-227) cells were cultured in RPMI 1640 medium containing 10% fetal bovine serum and 1× penicillin/streptomycin/L-glutamine. Cells were seeded in 384-well plates at a density of 3.33E+04 cells/mL and incubated at 37° C., 5% CO2, overnight. Serially-diluted compound or DMSO was added to the cells, and plates were incubated at 37° C., 5% CO2 for 72 h. Cell viability was measured using a CellTiter-Glo® Luminescent Cell Viability Assay kit (Promega) according to the manufacturer's protocol. The luminescence signal of treated samples was normalized to DMSO control, and data were analyzed using a 4-parameter logistic model to calculate IC50 values.

Experiment [1] has as its system Phosphorylation of ERK1/2 in AsPC-1 cells. The experiment can be described thus: Phospho-ERK1/2 MSD Assay. It is filed as cell-based, human. The conditions noted are these: Homo sapiens, ASPC1, 2 h. The essentials:
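Read-out: MSD electrochemiluminescent detection of phosphorylated ERK1/2 in whole-cell lysates, fitted to a 4-parameter logistic curve for IC50. Prior to lysis, AsPC-1 cells (25,000 per well) received a 2 h compound dose-response at 37 °C.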

For experiment [2], the target named is His-tagged KRAS G12D protein (Homo sapiens (Human), UniProt P01116, G12D). Description: KRAS G12D TR-FRET Assay. The experiment is classed as binding. The essentials:
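His-tagged KRAS G12D (diluted to 20 nM in pH 7.4 HEPES buffer with 10 mM MgCl2 and 10 μM GDP) was preincubated with titrated compound for 30 min at room temperature. Biotinylated KRPep-2d peptide (diluted to 20 nM) was then added for 1 h, and displacement was monitored by TR-FRET.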

In experiment [3] the target is GDP-bound KRAS protein (aa 1-169), containing both G12D and C118A amino acid substitutions (Homo sapiens (Human), UniProt P01116, C118A/G12D). The experiment can be described thus: KRAS G12D Coupled Nucleotide Exchange Assay. The experiment is classed as biochemical.
Chain of GDP-bound KRAS protein (aa 1-169), containing both G12D and C118A amino acid substitutions (P01116 other isoform, or with tags, fused parts or gaps G12D/C118A): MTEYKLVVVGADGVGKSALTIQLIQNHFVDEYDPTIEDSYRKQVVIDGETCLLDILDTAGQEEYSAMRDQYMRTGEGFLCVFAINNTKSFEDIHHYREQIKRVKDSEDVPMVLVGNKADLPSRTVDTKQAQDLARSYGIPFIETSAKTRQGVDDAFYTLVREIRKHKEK
Where [4] appears, read: read-out: 2 h p-ERK (AsPC-1 cells), IC50.
The mark [5] stands for this setting: read-out: KRAS G12D Binding IC50.
Setting [6] is: read-out: KRAS G12D Coupled Exchange IC50.

Chain of His-tagged KRAS G12D protein (P01116 other isoform, or with tags, fused parts or gaps G12D): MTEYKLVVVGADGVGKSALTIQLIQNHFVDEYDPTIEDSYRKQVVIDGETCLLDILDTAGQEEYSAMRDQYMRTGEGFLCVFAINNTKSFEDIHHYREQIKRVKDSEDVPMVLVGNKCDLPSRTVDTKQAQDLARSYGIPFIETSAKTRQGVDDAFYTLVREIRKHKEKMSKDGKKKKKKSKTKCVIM

For `CC12COCCN(C1)c1nc(OC[C@@]34CCCN3C[C@H](F)C4)nc3cc(nnc13)-c1c(c(Cl)cc3[nH]ncc13)CCCOC(=O)O2` (stereo in doubt) [Example 362, (26R)-18-chloro-4-(((2R,7aS)-2-fluorotetrahydro-1H-pyrrolo[1,2-a]pyrrol-7a(5H)-yl)methoxy)-26-methyl-23,25,28-trioxa-1,3,5,8,9,14,15-heptaazahexacyclo[24.4.1.1~6,10~.0~2,7~.0~11,19~.0~12,16~]dotriaconta-2,4,6(32),7,9,11,13,16,18-nonaen-24-one], the IC50 in the experiment on AsPC-1 cells is 1450 nM; in experiment [1] (setting [4]), 133 nM.
Turning to `Fc1c2ncc3c(nc(OC[C@@]45CCCN4C[C@H](F)C5)nc13)N1CCC[C@H](C1)c1coc(n1)CCCc1c(Cl)cc3[nH]ncc3c1-2` [Example 157, (18R)-9-chloro-31-fluoro-25-(((2R,7aS)-2-fluorotetrahydro-1H-pyrrolo[1,2-a]pyrrol-7a(5H)-yl)methoxy)-15-oxa-5,6,22,24,26,30,33-heptaazaheptacyclo[25.3.1.1~14,17~.1~18,22~.0~2,10~.0~3,7~.0~23,28~]tritriaconta-1(31),2,4,7,9,14(33),16,23,25,27,29-undecaene], the IC50 with AsPC-1 cells came out at 60 nM; in experiment [1] (setting [4]), 7 nM.
Consider `O=C1N[C@@H]2CCCCN(C2)c2nc(OC[C@@]34CCCN3C[C@H](F)C4)nc3c(F)c(ncc23)-c2c(c(Cl)cc3[nH]ncc23)CCCCO1` [Example 291, (27R)-18-chloro-33-fluoro-4-(((2R,7aS)-2-fluorotetrahydro-1H-pyrrolo[1,2-a]pyrrol-7a(5H)-yl)methoxy)-24-oxa-1,3,5,9,14,15,26-heptaazahexacyclo[25.4.1.1~6,10~.0~2,7~.0~11,19~.0~12,16~]tritriaconta-2,4,6(33),7,9,11,13,16,18-nonaen-25-one], for which the IC50 in experiment [2] (setting [5]) was 26 nM; in experiment [1] (setting [4]), 1230 nM; in experiment [3] (setting [6]), 5 nM.
For `Fc1c2ncc3c(nc(OC[C@@]45CCCN4C[C@H](F)C5)nc13)N1CCOC(C1)c1cnn(n1)CCCc1c(Cl)cc3[nH]ncc3c1-2` (stereo partly drawn) [Example 294, 9-chloro-31-fluoro-25-(((2R,7aS)-2-fluorotetrahydro-1H-pyrrolo[1,2-a]pyrrol-7a(5H)-yl)methoxy)-19-oxa-5,6,14,15,22,24,26,30,33-nonaazaheptacyclo[25.3.1.1~14,17~.1~18,22~.0~2,10~.0~3,7~.0~23,28~]tritriaconta-1(31),2,4,7,9,15,17(33),23,25,27,29-undecaene], the IC50 in experiment [2] (setting [5]) stood at 20 nM; in experiment [1] (setting [4]), 55.1 nM; in experiment [3] (setting [6]) it was 9 nM.
Consider `O=C1OCCc2c(Cl)cc3[nH]ncc3c2-c2ncc3c(nc(OC[C@@]45CCCN4C[C@H](F)C5)nc3c2F)N2CCC[C@]3(C[C@@H](CO3)O1)C2` [Example 315, (1S,4S)-11-chloro-33-fluoro-25-(((2R,7aS)-2-fluorotetrahydro-1H-pyrrolo[1,2-a]pyrrol-7a(5H)-yl)methoxy)-2,5,7-trioxa-14,15,20,24,26,28-hexaazaheptacyclo[26.3.1.1~1,4~.1~19,23~.0~10,18~.0~13,17~.0~22,27~]tetratriaconta-10,12,15,17,19(33),20,22,24,26-nonaen-6-one], for which the IC50 is 23 nM in the experiment on AsPC-1 cells and 20.8 nM in experiment [1] (setting [4]).
Consider `C[C@]12C[C@]3(CN(CCO3)c3nc(OC[C@@]45CCCN4C[C@H](F)C5)nc4c(F)c(ncc34)-c3c(c(Cl)cc4[nH]ncc34)CCOC(=O)O1)C2` [Example 322, (1S,3S)-10-chloro-32-fluoro-24-(((2R,7aS)-2-fluorotetrahydro-1H-pyrrolo[1,2-a]pyrrol-7a(5H)-yl)methoxy)-3-methyl-4,6,30-trioxa-13,14,19,23,25,27-hexaazaheptacyclo[25.3.1.1~1,3~.1~18,22~.0~9,17~.0~12,16~.0~21,26~]tritriaconta-9,11,14,16,18(32),19,21,23,25-nonaen-5-one], for which the IC50 came to 366 nM in experiment [2] (setting [5]), 589 nM in experiment [1] (setting [4]) and 156 nM in experiment [3] (setting [6]).
Regarding `Cn1ncc2cc(Cl)c3c(c21)-c1ncc2c(nc(OC[C@@]45CCCN4C[C@H](F)C5)nc2c1F)N1CCOC[C@H](C1)OC(=O)OCCC3` [Example 335, (26S)-18-chloro-32-fluoro-4-(((2R,7aS)-2-fluorotetrahydro-1H-pyrrolo[1,2-a]pyrrol-7a(5H)-yl)methoxy)-13-methyl-23,25,28-trioxa-1,3,5,9,13,14-hexaazahexacyclo[24.4.1.1~6,10~.0~2,7~.0~11,19~.0~12,16~]dotriaconta-2,4,6,8,10(32),11,14,16,18-nonaen-24-one], the IC50 in experiment [2] (setting [5]) is 44 nM; in experiment [1] (setting [4]) it was 1260 nM; in experiment [3] (setting [6]) it was 9 nM.
The corresponding values for `O=C1OCCCc2c(Cl)cc3[nH]ncc3c2-c2ncc3c(nc(OC[C@@]45CCCN4C[C@H](F)C5)nc3c2F)N2CCCC[C@@](CF)(C2)O1` [Example 339, (26S)-18-chloro-32-fluoro-26-(fluoromethyl)-4-(((2R,7aS)-2-fluorotetrahydro-1H-pyrrolo[1,2-a]pyrrol-7a(5H)-yl)methoxy)-23,25-dioxa-1,3,5,9,14,15-hexaazahexacyclo[24.4.1.1~6,10~.0~2,7~.0~11,19~.0~12,16~]dotriaconta-2,4,6,8,10(32),11,13,16,18-nonaen-24-one] are 1350 nM, 826 nM and 501 nM.
Turning to `CN1CCN(c2nc3c4cnc(c(F)c4n2)-c2c(c(Cl)cc4[nH]ncc24)CCCOC(=O)O[C@@H]2COCCN3C2)CC1` [Example 347, (26S)-18-chloro-32-fluoro-4-(4-methyl-1-piperazinyl)-23,25,28-trioxa-1,3,5,9,14,15-hexaazahexacyclo[24.4.1.1~6,10~.0~2,7~.0~11,19~.0~12,16~]dotriaconta-2,4,6,8,10(32),11,13,16,18-nonaen-24-one], the IC50 in experiment [2] (setting [5]) is 27 nM; in experiment [1] (setting [4]), 200 nM; in experiment [3] (setting [6]), 7 nM.
Take `Cc1cc2[nH]ncc2c2c1CCOC(=O)O[C@H]1C[C@]3(CCCN(C3)c3nc(OC[C@@]45CCCN4C[C@H](F)C5)nc4cc-2nnc34)C1` [Example 358, (1R,3S)-24-(((2R,7aS)-2-fluorotetrahydro-1H-pyrrolo[1,2-a]pyrrol-7a(5H)-yl)methoxy)-10-methyl-4,6-dioxa-13,14,19,20,23,25,27-heptaazaheptacyclo[25.3.1.1~1,3~.1~18,22~.0~9,17~.0~12,16~.0~21,26~]tritriaconta-9,11,14,16,18(32),19,21,23,25-nonaen-5-one]: the IC50 in experiment [2] (setting [5]) came out at 24 nM; in experiment [1] (setting [4]), 384 nM; in experiment [3] (setting [6]), 16 nM.
`CN1CCC(Oc2nc3c4cnc(c(F)c4n2)-c2c(c(Cl)cc4[nH]ncc24)CCCOC(=O)O[C@@H]2COCCN3C2)CC1.O=C(O)C(F)(F)F` [Example 370, (26S)-18-Chloro-32-fluoro-4-((1-methyl-4-piperidinyl)oxy)-23,25,28-trioxa-1,3,5,9,14,15-hexaazahexacyclo[24.4.1.1˜6,10˜.0˜2,7˜.0˜11,19˜.0˜12,16˜]dotriaconta-2,4,6,8,10(32),11,13,16,18-nonaen-24-one trifluoroacetate]: the IC50 in experiment [2] (setting [5]) stood at 36 nM; in experiment [1] (setting [4]), 708 nM; in experiment [3] (setting [6]) it was 18 nM.
As for `O=C1OCCc2c(F)ccc3cccc(c23)-c2ncc3c(nc(OC[C@@]45CCCN4C[C@H](F)C5)nc3c2F)N2CCOC[C@H](C2)O1` [Example 371], the IC50 worked out at 8 nM in experiment [2] (setting [5]), 239 nM in experiment [1] (setting [4]) and 4 nM in experiment [3] (setting [6]).
For the molecule `Fc1c2ncc3c(nc(OC[C@@]45CCCN4C[C@H](F)C5)nc13)N1CCC[C@H](C1)c1cnc(o1)CCCc1c(Cl)cc3[nH]ncc3c1-2` [Example 387, (18R)-9-chloro-31-fluoro-25-(((2R,7aS)-2-fluorotetrahydro-1H-pyrrolo[1,2-a]pyrrol-7a(5H)-yl)methoxy)-33-oxa-5,6,15,22,24,26,30-heptaazaheptacyclo[25.3.1.1~14,17~.1~18,22~.0~2,10~.0~3,7~.0~23,28~]tritriaconta-1(31),2,4,7,9,14,16,23,25,27,29-undecaene], the IC50 in experiment [2] (TR-FRET, read-out: KRAS G12D Binding) worked out at 8 nM; in experiment [1] (read-out: 2 h p-ERK (AsPC-1 cells)) it was 66.3 nM; in experiment [3] (2 hours compound pre-incubation, read-out: KRAS G12D Coupled Exchange) it was 4 nM.
